# Target: T1, human ferroportin (Homo sapiens, UniProt Q9NP59)
# T1 construct: luciferase reporter (read with the Nano-Glo Luciferase Assay System); expressed in transfected cells; host or cells: CHO cells, stably transfected, expression induced with doxycycline
# T1 sequence (Q9NP59 1-571): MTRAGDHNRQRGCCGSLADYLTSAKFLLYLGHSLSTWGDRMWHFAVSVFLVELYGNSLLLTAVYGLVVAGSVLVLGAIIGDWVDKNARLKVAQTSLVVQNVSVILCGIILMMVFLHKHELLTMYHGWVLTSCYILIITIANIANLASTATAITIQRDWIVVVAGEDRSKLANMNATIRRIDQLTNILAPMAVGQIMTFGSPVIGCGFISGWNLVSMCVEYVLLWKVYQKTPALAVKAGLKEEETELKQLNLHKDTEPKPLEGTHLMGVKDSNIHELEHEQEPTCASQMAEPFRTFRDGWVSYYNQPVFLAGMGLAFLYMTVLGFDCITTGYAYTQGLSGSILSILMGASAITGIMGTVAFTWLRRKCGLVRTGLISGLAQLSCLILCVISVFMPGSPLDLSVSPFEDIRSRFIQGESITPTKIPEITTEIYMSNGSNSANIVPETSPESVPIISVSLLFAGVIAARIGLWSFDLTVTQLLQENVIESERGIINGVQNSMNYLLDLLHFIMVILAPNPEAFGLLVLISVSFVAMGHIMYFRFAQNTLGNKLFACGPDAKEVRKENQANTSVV
# Experiment: Biological in-vitro ferroportin internalization assay (luciferase reporter)
# Type: cell-based
# Conditions: average pEC50; stably-transfected CHO cell line expressing human ferroportin tagged to a luciferase reporter; 6 h incubation with test compound
# How it was run: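 Stably transfected CHO cells expressing luciferase-tagged human ferroportin, plated 24 h with ferric ammonium citrate and induced with doxycycline for 24 h. Compounds incubated 6 h, then luciferase activity measured by Nano-Glo; average pEC50 reported.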
row,SMILES,pEC50
1,"CN(CC(=O)NC(C)(C)C)c1nc(-c2cc(CO)ccn2)nc2c1CCC2 [Compound 41, N-tert-butyl-2-({2-[4-(hydroxymethyl)pyridin-2-yl]-5H,6H,7H-cyclopenta[d]pyrimidin-4-yl}(methyl)amino)acetamide]",7.3
2,"CN(CC(=O)N1CCCC1(C)C)c1nc(-c2cc(OCCO)ccn2)nc2c1CCC2 [Compound 368, 1-(2,2-dimethylpyrrolidin-1-yl)-2-({2-[4-(2-hydroxyethoxy)pyridin-2-yl]-5H,6H,7H-cyclopenta[d]pyrimidin-4-yl}(methyl)amino)ethan-1-one]",7.8
3,"CCOc1ccnc(-c2nc3c(c(N(C)CC(=O)Nc4cnc(OC)nc4)n2)CCC3)c1 [Compound 259, 2-{[2-(4-ethoxypyridin-2-yl)-5H,6H,7H-cyclopenta[d]pyrimidin-4-yl](methyl)amino}-N-(2-methoxypyrimidin-5-yl)acetamide]",7.1
4,"CN(C)C(=O)COc1ccnc(-c2nc3c(c(N(C)CC(=O)NC(C)(C)C)n2)CCC3)c1 [Compound 403, 2-{[2-(4-{[(tert-butylcarbamoyl)methyl](methyl)amino}-5H,6H,7H-cyclopenta[d]pyrimidin-2-yl)pyridin-4-yl]oxy}-N,N-dimethylacetamide]",7.6
5,"COc1ccnc(-c2nc3c(c(N(C)CC(=O)NC4CCOCC4)n2)CCC3)c1 [Compound 134, 2-{[2-(4-methoxypyridin-2-yl)-5H,6H,7H-cyclopenta[d]pyrimidin-4-yl](methyl)amino}-N-(oxan-4-yl)acetamide]",6.9
6,"Cc1ccc(NC(=O)CN(C)c2nc(-c3cc(OCC4(O)CC4)ccn3)nc3c2CCC3)cn1 [Compound 330, 2-[(2-{4-[(1-hydroxycyclopropyl)methoxy]pyri-din-2-yl}-5H,6H,7H-cyclopenta[d]pyrimidin-4-yl)(methyl)amino]-N-(6-methylpyridin-3-yl)acetamide]",7.8
7,"Cc1ccnc(-c2nc3c(c(N(C)CC(=O)NC4(C)CCOC4)n2)CCC3)c1 (stereo not drawn) [Compound 65, 2-{methyl[2-(4-methylpyridin-2-yl)-5H,6H,7H-cyclopenta[d]pyrimidin-4-yl]amino}-N-(3-methyloxolan-3-yl)acetamide]",7.6
8,"C[C@H](C(=O)NC(C)(C)C)N(C)c1nc(-c2cc3cn[nH]c3cn2)nc2c1CCC2 [Compound 183, (2R)—N-tert-butyl-2-[methyl(2-{1H-pyrazolo[3,4-c]pyridin-5-yl}-5H,6H,7H-cyclopenta[d]pyrimidin-4-yl)amino]propanamide]",8
9,COc1ccnc(-c2nc3c(c(N(C)CC(=O)Nc4cncnc4)n2)CCC3)c1 [Compound 178],7.2
10,"COCCN(C)c1nc(-c2ccccn2)nc2c1CCC2 [Compound 84, N-(2-methoxyethyl)-N-methyl-2-(pyridin-2-yl)-5H,6H,7H-cyclopenta[d]pyrimidin-4-amine]",6.6
11,"CC[C@@H](O)COc1ccnc(-c2nc3c(c(N(C)CC(=O)NC(C)(C)C)n2)CCC3)c1 [Compound 393, N-tert-butyl-2-[(2-{4-[(2R)-2-hydroxybutoxy]pyridin-2-yl}-5H,6H,7H-cyclopenta[d]pyrimidin-4-yl)(methyl)amino]acetamide]",8.1
12,"O=C(NC1CCCCC1)C1CN(c2nc(-c3ccccn3)nc3c2CCC3)C1 [Compound 29, N-cyclohexyl-1-[2-(pyridin-2-yl)-5H,6H,7H-cyclopenta[d]pyrimidin-4-yl]azetidine-3-carboxamide]",5.9
13,"CN(CC(=O)NC(C)(C)C)c1nc(-c2cc(OC3COC3)ccn2)nc2c1CCC2 [Compound 245, N-tert-butyl-2-[methyl({2-[4-(oxetan-3-yloxy)pyridin-2-yl]-5H,6H,7H-cyclopenta[d]pyrimidin-4-yl})amino]acetamide]",7.7
14,"CN(CC(=O)Nc1cnn(C)c1)c1nc(-c2cc3ccccc3cn2)nc2c1CCC2 [Compound 218, 2-{[2-(isoquinolin-3-yl)-5H,6H,7H-cyclopenta[d]pyrimidin-4-yl](methyl)amino}-N-(1-methyl-1H-pyrazol-4-yl)acetamide]",7
15,"Cc1ccnc(-c2nc3c(c(N(C)CC(=O)Nc4cccc(F)c4)n2)CCC3)c1 [Compound 66, N-(3-fluorophenyl)-2-{methyl[2-(4-methylpyridin-2-yl)-5H,6H,7H-cyclopenta[d]pyrimidin-4-yl]amino}acetamide]",7.7
16,"COc1ccnc(-c2nc3c(c(N(C)CC(=O)Nc4cnc(OC)nc4)n2)CCC3)c1 [Compound 153, 2-{[2-(4-methoxypyridin-2-yl)-5H,6H,7H-cyclopenta[d]pyrimidin-4-yl](methyl)amino}-N-(2-methoxypyrimidin-5-yl)acetamide]",7.6
17,"Cc1cnc(CCNC(=O)CN(C)c2nc(-c3ccccn3)nc3c2CCC3)n1C1CCC1 [Compound 69, N-[2-(1-cyclobutyl-5-methyl-1H-imidazol-2-yl)ethyl]-2-{methyl[2-(pyridin-2-yl)-5H,6H,7H-cyclopenta[d]pyrimidin-4-yl]amino}acetamide]",7
18,"COc1ccc(NC(=O)CN(C)c2nc(-c3cc(O[C@@H]4CCOC4)ccn3)nc3c2CCC3)cn1 [Compound 346, N-(6-methoxypyridin-3-yl)-2-[methyl(2-{4-[(3R)-oxolan-3-yloxy]pyridin-2-yl}-5H,6H,7H-cyclopenta[d]pyrimidin-4-yl)amino]acetamide]",7.6
19,"CN(CC(=O)NC(C)(C)C)c1nc(-c2cc3occc3cn2)nc2c1CCC2 [Compound 341, N-tert-butyl-2-[(2-{furo[3,2-c]pyridin-6-yl}-5H,6H,7H-cyclopenta[d]pyrimidin-4-yl)(methyl)amino]acetamide]",7.6
20,"CN(CC(=O)Nc1ccc2cccnc2c1)c1nc(-c2ccccn2)nc2c1CCC2 [Compound 21, 2-{methyl[2-(pyridin-2-yl)-5H,6H,7H-cyclopenta[d]pyrimidin-4-yl]amino}-N-(quinolin-7-yl)acetamide]",6.9
21,"Cc1cccc(-c2nc3c(c(N(C)CC(=O)NC(C)(C)C)n2)CCC3)n1 [Compound 59, -tert-butyl-2-{methyl[2-(6-methylpyridin-2-yl)-5H,6H,7H-cyclopenta[d]pyrimidin-4-yl]amino}acetamide]",6.8
22,"Cc1ccnc(-c2nc3c(c(N(C)CC(=O)NC(C)(C)CO)n2)CCC3)c1 [Compound 62, N-(1-hydroxy-2-methylpropan-2-yl)-2-{methyl[2-(4-methylpyridin-2-yl)-5H,6H,7H-cyclopenta[d]pyrimidin-4-yl]amino}acetamide]",7.6
23,"CN(CC(=O)NC1(C(F)(F)F)CC1)c1nc(-c2cc(OC3COC3)ccn2)nc2c1CCC2 [Compound 338, 2-[methyl({2-[4-(oxetan-3-yloxy)pyridin-2-yl]-5H,6H,7H-cyclopenta[d]pyrimidin-4-yl})amino]-N-[1-(trifluoromethyl)cyclopropyl]aceta-mide]",7.1
24,"CN(C)CCOc1ccnc(-c2nc3c(c(N(C)CC(=O)N4CCCC4)n2)CCC3)c1 [Compound 417, 2-[(2-{4-[2-(dimethylamino)ethoxy]pyridin-2-yl}-5H,6H,7H-cyclopenta[d]pyrimidin-4-yl)(methyl)amino]-1-(pyrrolidin-1-yl)ethan-1-one]",7.1
25,"COc1cc(-c2nc3c(c(N(C)CC(=O)Nc4ccc(C)nc4)n2)CCC3)ncc1F [Compound 306, 2-{[2-(5-fluoro-4-methoxypyridin-2-yl)-5H,6H,7H-cyclopenta[d]pyrimidin-4-yl](methyl)amino}-N-(6-methylpyridin-3-yl)acetamide]",6.6
26,"CN(C)CCOc1ccnc(-c2nc3c(c(N(C)CC(=O)Nc4cccc(F)c4)n2)CCC3)c1 [Compound 294, 2-[(2-{4-[2-(dimethylamino)ethoxy]pyridin-2-yl}-5H,6H,7H-cyclopenta[d]pyrimidin-4-yl)(methyl)amino]-N-(3-fluorophenyl)acetamide]",7.9
27,"Cc1cnc(NC(=O)CN(C)c2nc(-c3cc(OCCO)ccn3)nc3c2CCC3)cn1 [Compound 284, 2-({2-[4-(2-hydroxyethoxy)pyridin-2-yl]-5H,6H,7H-cyclopenta[d]pyrimidin-4-yl}(methyl)amino)-N-(5-methylpyrazin-2-yl)acetamide]",7.7
28,"CN(CC(=O)Nc1ccc(F)nc1)c1nc(-c2cc3ccccc3cn2)nc2c1CCC2 [Compound 221, N-(6-fluoropyridin-3-yl)-2-{[2-(isoquinolin-3-yl)-5H,6H,7H-cyclopenta[d]pyrimidin-4-yl](methyl)amino}acetamide]",7
29,"CN(CC(=O)NC(C)(C)C)c1nc(-c2cc(OCCN3CC[C@H](F)C3)ccn2)nc2c1CCC2 [Compound 474, N-tert-butyl-2-{[2-(4-{2-[(3S)-3-fluoropyrrolidin-1-yl]ethoxy}pyridin-2-yl)-5H,6H,7H-cyclopenta[d]pyrimidin-4-yl](methyl)amino}acetamide]",8.3
30,"CN(CC(=O)NC(C)(C)C)c1nc(-c2cc3ccccc3cn2)nc2c1CCC2 [Compound 165, N-tert-butyl-2-{[2-(isoquinolin-3-yl)-5H,6H,7H-cyclopenta[d]pyrimidin-4-yl](methyl)amino}acetamide]",7.4

# — patent US11746100B2 (GLOBAL BLOOD THERAPEUTICS, INC., priority 2020, dated 2023)
